For 34 compounds, IC50 results are on record in patent publication US6528655B1, “Aromatic derivatives with HIV integrase inhibitory properties” (Pharmacor, Inc., priority 2000, dated 2003).

The assay deals with HIV-1 integrase (Human immunodeficiency virus type 1 group M subtype B, UniProt P04585). In words: HIV-1 integrase inhibition assay (radiolabeled duplex substrate corresponding to the U5 end of the HIV LTR). The assay is classed as biochemical. On the procedure: For the purpose of Table 1 to 4, the HIV-1 integrase inhibition assay was carried out following a known procedure (Burke, Jr. T. R. et al., J. Med. Chem. 38, 4171-4178 (1995)). A suitable radiolabeled duplex substrate corresponding to the U5 end of the HIV LTR was used.
For the purposes of Table 1 to 4 the HIV-1 integrase inhibition assay was based on a known procedure (Hazuda, D. J. et al., Nucleic Acids Res. 22 1121-1122 (1994)).

Like-named read-outs stand apart in the source and are kept apart here. Where only a bound is given, the exact number is not on record here.

One may read the IC50 as the concentration at which inhibition is half-maximal. In the case of `O=C(N[C@@H](Cc1c[nH]c2ccccc12)C(=O)NCCc1ccc(O)c(O)c1)c1cc2cccc(O)c2cc1O` [Example 59, N-[Nα-(3,5-Dihydroxynaphthyl-2-carbonyl)-L-tryptophanyl]dopamine], the IC50 worked out at 0.62 µM.
`O=C(N[C@@H](Cc1ccc(O)c(O)c1)C(=O)NCCc1ccc(O)c(O)c1)c1cc2cccc(O)c2cc1O` [Example 60, N-[Nα-(3,5-Dihydroxynaphthyl-2-carbonyl)-L-3,4-dihydroxyphenylalanyl]dopamine] gave an IC50 of 1.8 µM.
On the same count and under the same terms, to `NC(=O)C[C@H](NC(=O)c1cc2cccc(O)c2cc1O)C(=O)NCCc1ccc(O)c(O)c1` [Example 61, N-[Nα-(3,5-Dihydroxynaphthyl-2-carbonyl)-L-asparagyl]dopamine] belongs greater than 5 µM.
Same read-out and setting: to `CC(C)(C)OC(=O)C[C@H](NC(=O)c1cc(O)c2cccc(O)c2n1)C(=O)NCCc1ccc(O)c(O)c1` [Example 62, N-[Nα-(4,8-Dihydroxyquinoline-2-carbonyl)-Oγ-ted-butyl-L-aspartyl]dopamine] belongs greater than 5 µM; to `O=C(C[C@H](NC(=O)c1cc(O)c2cccc(O)c2n1)C(=O)NCCc1ccc(O)c(O)c1)NC(c1ccccc1)(c1ccccc1)c1ccccc1` [Example 64, N-[Nα-(4,8-Dihydroxyquinoline-2-carbonyl)-Nγ-trityl-L-asparagyl]dopamine], 7.1 µM; to `O=C(NCCCC[C@H](NC(=O)c1cc2cccc(O)c2cc1O)C(=O)NCCc1ccc(O)c(O)c1)c1cc2cccc(O)c2cc1O` [Example 66, N-[Nα,Nε-di-(3,5-Dihydroxynaphthyl-2-carbonyl)-L-lysyl]dopamine], greater than 5 µM.
The compound `NC(=O)C[C@H](NC(=O)c1cc(O)c2cccc(O)c2n1)C(=O)NCCc1ccc(O)c(O)c1` [Example 67, N-[Nα-(4,8-Dihydroxyquinoline-2-carbonyl)-L-asparagyl]dopamine] returned a half-maximal inhibitory concentration (IC50) greater than 5 µM.
Consider `O=C(N[C@@H](Cc1ccc(O)cc1)C(=O)NCc1ccc(O)c(O)c1)c1cc(O)c2cccc(O)c2n1` [Example 68, N-[Nα-(4,8-Dihydroxyquinoline-2-carbonyl)-L-tyrosyl]-3,4-dihydroxybenzylamine], for which the IC50 is greater than 5 µM.
Same read-out and setting: with `Cc1ccc(C(NC(=O)CC[C@H](NC(=O)c2cc(O)c3cccc(O)c3n2)C(=O)NCc2ccc(O)c(O)c2)(c2ccccc2)c2ccccc2)cc1` [Example 69, N-[Nα-(4,8-Dihydroxyquinoline-2-carbonyl)-Nδ-methyltrityl-L-glutaminyl]-3,4-dihydroxybenzylamine] the figure was 0.346 µM.
Same read-out and setting: with `O=C(N[C@@H](Cc1cn(C(c2ccccc2)(c2ccccc2)c2ccccc2)cn1)C(=O)NCc1ccc(O)c(O)c1)c1cc(O)c2cccc(O)c2n1` [Example 70, N-[Nα-(4,8-Dihydroxyquinoline-2-carbonyl)-Nτ-trityl-L-histidinyl]-3,4-dihydroxybenzylamine] the figure was 0.403 µM.
As for `Cc1ccc(C(c2ccccc2)(c2ccccc2)n2cnc(C[C@H](NC(=O)c3cc(O)c4cccc(O)c4n3)C(=O)NCCc3ccc(O)c(O)c3)c2)cc1` [Example 71, N-[Nα-(4,8-Dihydroxyquinoline-2-carbonyl)-Nτ-methyltrityl-L-histidinyl]dopamine], the IC50 (Table 2, compounds of formula III′, read-out: IC50) came out at 0.607 µM.
`CC(C)(C)OC[C@H](NC(=O)c1cc(O)c2cccc(O)c2n1)C(=O)NCCc1ccc(O)c(O)c1` [Example 72, N-[Nα-(4,8-Dihydroxyquinoline-2-carbonyl)-O-tert-butyl-L-seryl]dopamine] returned an IC50 greater than 10 µM.
On the same count and under the same terms, to `O=C(N[C@@H](Cc1ccc(O)cc1)C(=O)NNC(=O)c1ccccc1O)c1cc(O)c2cccc(O)c2n1` [Example 73, N1-[Nα-(4,8-Dihydroxyquinoline-2-carbonyl)-L-tyrosyl]-N2-(2-hydroxybenzoyl)-hydrazine] belongs 2.2 µM; to `O=C(/C=C/c1ccc(O)c(O)c1)N[C@@H](Cc1ccc(O)cc1)C(=O)NNC(=O)c1ccccc1O` [Example 74, N1-(Nα-Caffeoyl-L-tyrosyl)-N2-(2-hydroxybenzoyl)-hydrazine], 0.82 µM.
The same measure, in the same setting: to `O=C(/C=C/c1ccc(O)c(O)c1)N[C@@H](Cc1c[nH]c2ccccc12)C(=O)NNC(=O)c1ccccc1O` [Example 75, N1-(Nα-Caffeoyl-L-tryptophanyl)-N2-(2-hydroxybenzoyl)-hydrazine] belongs 1.2 µM.
`O=C(/C=C/c1ccc(O)c(O)c1)N[C@@H](Cc1ccc(O)c(O)c1)C(=O)NNC(=O)c1ccccc1O` [Example 76, N1-(Nα-Caffeoyl-L-3,4-dihydroxyphenylalanyl)-N2-(2-hydroxybenzoyl)-hydrazine] yielded a concentration for half-maximal inhibition (IC50) of 0.383 µM.
The same measure, in the same setting: to `O=C(N[C@@H](Cc1c[nH]c2ccccc12)C(=O)NNC(=O)c1ccccc1O)c1cc(O)c2cccc(O)c2n1` [Example 77, N1-[Nα-(4,8-Dihydroxyquinoline-2-carbonyl)-L-tryptophanyl]-N2-(2-hydroxybenzoyl)-hydrazine] belongs 4.7 µM.
Take `O=C(CC[C@H](NC(=O)c1cc(O)c2cccc(O)c2n1)C(=O)NNC(=O)c1ccccc1O)NNC(=O)c1ccccc1O` [Example 78, N1-[Nα-(4,8-Dihydroxyquinoline-2-carbonyl)-L-glutamyl]-N2/Nδ-di-(2-hydroxybenzoyl)-dihydrazine]: where the note is “Table 3, compounds of formula IV′, read-out: IC50”, the IC50 is greater than 9.7 µM.
`CC(C)(C)OC(=O)N[C@@H](Cc1cn(-c2ccc([N+](=O)[O-])cc2[N+](=O)[O-])cn1)C(=O)NNC(=O)c1ccccc1O` [Example 79, N1-[Nα-tert-Butoxycarbonyl-Nτ-(2,4-dinitrophenyl)-L-histidinyl]-N2-(2-hydroxybenzoyl)-hydrazine] showed an IC50 greater than 4 µM.
Turning to `O=C(C=Cc1ccc(O)c(O)c1)NC(Cc1cn(-c2ccc([N+](=O)[O-])cc2[N+](=O)[O-])cn1)C(=O)NNC(=O)c1ccccc1O` [Example 80, N1-[Nα-Caffeoyl-Nτ-(2,4-dinitrophenyl)-L-histidinyl]-N2-(2-hydroxybenzoyl)-hydrazine], the half-inhibitory concentration (IC50) is 0.251 µM.
Same read-out and setting: with `O=C(C=Cc1ccsc1)NC(Cc1cn(-c2ccc([N+](=O)[O-])cc2[N+](=O)[O-])cn1)C(=O)NNC(=O)c1ccccc1O` [Example 81, N1-[Nα-(3-(3′-thiophenyl)acryloyl)-Nτ-(2,4-dinitrophenyl)-L-histidinyl]-N2-(2-hydroxybenzoyl)-hydrazine] the figure was greater than 10 µM; with `COc1ccc(OC)c(NC(=O)[C@H](CCC(=O)NC(c2ccccc2)(c2ccccc2)c2ccccc2)NC(=O)/C=C/c2ccc(O)c(O)c2)c1` [Example 82, N-(Nα-Caffeoyl-Nδ-trityl-L-glutaminyl)-2,5-dimethoxyaniline], 2.55 µM.
On the same count and under the same terms, to `COc1ccc(OC)c(NC(=O)[C@H](CCC(=O)NC(c2ccccc2)(c2ccccc2)c2ccccc2)NC(=O)c2ccc(O)c(O)c2)c1` [Example 83, N-[Nα-(3,4-Dihydroxybenzoyl)-Nδ-trityl-L-glutaminyl]-2,5-dimethoxyaniline] belongs 2.25 µM; to `COc1ccc(OC)c(NC(=O)[C@H](CCC(=O)NC(c2ccccc2)(c2ccccc2)c2ccccc2)NC(=O)c2cc3ccccc3[nH]2)c1` [Example 84, N-[Nα-(Indole-2-carbonyl)-Nδ-trityl-L-glutaminyl]-2,5-dimethoxyaniline], 4.1 µM; to `COc1ccc(OC)c(NC(=O)[C@H](CCC(=O)NC(c2ccccc2)(c2ccccc2)c2ccccc2)NC(=O)c2cc(O)c3cccc(O)c3n2)c1` [Example 85, N-[Nα-(4,8-Dihydroxyquinoline-2-carbonyl)-Nδ-trityl-L-glutaminyl]-2,5-dimethoxyaniline], 2.6 µM.
Same read-out and setting: to `O=C(/C=C/c1c[nH]c2ccccc12)N[C@@H](Cc1cn(C(c2ccccc2)(c2ccccc2)c2ccccc2)cn1)C(=O)NCCc1ccc(O)c(O)c1` [Example 86, N-[Nα-(3-(3′-Indole)acryloyl)-Nτ-trityl-L-histidinyl]dopamine] belongs 2 µM; to `CC(C)(C)OC[C@H](NC(=O)Cc1cccs1)C(=O)NCCc1ccc(O)c(O)c1` [Example 87], greater than 10 µM; to `COc1ccc(OC)c(NC(=O)[C@H](CCC(=O)NC(c2ccccc2)(c2ccccc2)c2ccccc2)NC(=O)c2ccc[nH]2)c1` [Example 88, N-[Nα-(Pyrrole-2-carbonyl)-Nδ-trityl-L-glutaminyl]-2,5-dimethoxyaniline], greater than 10 µM.
Turning to `Cc1ccc(C(NC(=O)CC[C@H](NC(=O)/C=C/c2ccc(O)c(O)c2)C(=O)Nc2nccs2)(c2ccccc2)c2ccccc2)cc1` [Example 90, N-(Nα-Caffeoyl-Nδ-methyltrityl-L-glutaminyl)thiazole-2-amine], 0.834 µM corresponded to half-maximal inhibition (IC50).
Still for that read-out and setting: to `COc1ccc(OC)c(NC(=O)[C@H](CCC(N)=O)NC(=O)c2ccc[nH]2)c1` [Example 91, N-(Nα-(Pyrrole-2-carbonyl)-L-glutaminyl]-2,5dimethoxyaniline] belongs greater than 10 µM.
On to `CC(C)(C)OC[C@H](NC(=O)c1cccn1Cc1ccc(F)cc1)C(=O)NCCc1ccc(O)c(O)c1` [Example 93, N-[Nα-(N′-(4-Fluorobenzyl)pyrrole-2-carbonyl)-O-tert-butyl-L-seryl]dopamine], for which the IC50 (Table 4, compounds of formula I′, read-out: IC50) was greater than 10 µM.
`O=C(O)CC[C@H](NC(=O)c1cc2ccccc2n1Cc1ccc(F)cc1)C(=O)NCc1ccccc1` [Example 94, N-[Nα-(N′-(4-Fluorobenzyl)indole-2-carbonyl)-L-glutamyl]benzylamine] returned an IC50 of 9.25 µM.
In turn, `CC(C)(C)OC[C@H](NC(=O)c1cc2ccccc2n1Cc1ccc(F)cc1)C(=O)NCCc1ccc(O)c(O)c1` [Example 95, N-[Nα-(N′-(4-Fluorobenzyl)indole-2-carbonyl)-O-tert-butyl-L-seryl]dopamine] registered an IC50 of 7 µM.
The same measure, in the same setting: to `O=C(N[C@@H](CO)C(=O)NCCc1ccc(O)c(O)c1)c1cc2ccccc2n1Cc1ccc(F)cc1` [Example 96, N-[Nα-(N′-(4-Fluorobenzyl)indole-2-carbonyl)-L-seryl]dopamine] belongs greater than 10 µM.
